# Biological target: T1, mouse TRPM3α2 (mTRPM3) ion channel (Mus musculus, UniProt J9SQF3)
# T1 construct: expressed in transfected cells; host or cells: flip-in (Flp-In) HEK293
# Test: Monitoring the TRPM3 ion channel driven Ca2+ uptake (Fluo-4 AM assay)
# Type: cell-based
# Conditions: mTRPM3alpha2 overexpressing flip-in HEK293 cells, stimulated with Pregnenolone sulfate (PS) 50 μM
# Experimental: In order to monitor the inhibition of the mouse TRPM3α2 (mTRPM3) ion channel by the compounds of the invention, a cellular system making use of an mTRPM3alpha2 or hTRPM3 overexpressing cell line (flip-in HEK293) was used. The TRPM3 channel was stimulated/opened with Pregnenolone sulfate (PS) (50 μM) which results in Ca^2+ influx.
# For mTRPM3, the intracellular Ca^2+ was measured with a Calcium responsive dye, Fluor-4 AMV ester (Invitrogen). Cells were cultured until a confluence of 80-90%, washed with Versene (Invitrogen) and detached from the surface by a short incubation with 0.05% Trypsin (Invitrogen). The trypsination process was stopped by the addition of complete cell culture medium (DMEM, glutamax, 10% FCS, NEAA,Pen-Strep). Cells were collected and resuspended in Krebs buffer without Calcium at RT.
# Prior the cell seeding (±2000 cells/well into a black, 384 well plate (Greiner)) the diluted compound was added in the assay plate, together with the PS dissolved in Krebs buffer containing Calcium. […] Directly after cell addition the plates were read on an Envision fluorescence reader (PerkinElmer) by an Excitation of 485 nm and emission at 535 nm.
# Channel inhibition was calculated compared to a non-PS stimulated control versus a condition stimulated with PS (50 μM) with vehicle. The ability of the compounds of the invention to inhibit this activity was determined as: Percentage inhibition=[1−((RFU determined for sample with test compound present−RFU determined for sample with positive control inhibitor) divided by (RFU determined in the presence of vehicle−RFU determined for sample with positive control inhibitor))]*100.
# The activities of the Example compounds tested are depicted in the table below. The activity ranges A, B and C refer to IC50 values in the Fluo-4 AM assay as follows: “A”: IC50<1 μM; “B”: 1 μM≤IC50≤20 μM and “C”: IC50>20 μM
# T1 sequence (J9SQF3 1-1709 isoform J9SQF3-12): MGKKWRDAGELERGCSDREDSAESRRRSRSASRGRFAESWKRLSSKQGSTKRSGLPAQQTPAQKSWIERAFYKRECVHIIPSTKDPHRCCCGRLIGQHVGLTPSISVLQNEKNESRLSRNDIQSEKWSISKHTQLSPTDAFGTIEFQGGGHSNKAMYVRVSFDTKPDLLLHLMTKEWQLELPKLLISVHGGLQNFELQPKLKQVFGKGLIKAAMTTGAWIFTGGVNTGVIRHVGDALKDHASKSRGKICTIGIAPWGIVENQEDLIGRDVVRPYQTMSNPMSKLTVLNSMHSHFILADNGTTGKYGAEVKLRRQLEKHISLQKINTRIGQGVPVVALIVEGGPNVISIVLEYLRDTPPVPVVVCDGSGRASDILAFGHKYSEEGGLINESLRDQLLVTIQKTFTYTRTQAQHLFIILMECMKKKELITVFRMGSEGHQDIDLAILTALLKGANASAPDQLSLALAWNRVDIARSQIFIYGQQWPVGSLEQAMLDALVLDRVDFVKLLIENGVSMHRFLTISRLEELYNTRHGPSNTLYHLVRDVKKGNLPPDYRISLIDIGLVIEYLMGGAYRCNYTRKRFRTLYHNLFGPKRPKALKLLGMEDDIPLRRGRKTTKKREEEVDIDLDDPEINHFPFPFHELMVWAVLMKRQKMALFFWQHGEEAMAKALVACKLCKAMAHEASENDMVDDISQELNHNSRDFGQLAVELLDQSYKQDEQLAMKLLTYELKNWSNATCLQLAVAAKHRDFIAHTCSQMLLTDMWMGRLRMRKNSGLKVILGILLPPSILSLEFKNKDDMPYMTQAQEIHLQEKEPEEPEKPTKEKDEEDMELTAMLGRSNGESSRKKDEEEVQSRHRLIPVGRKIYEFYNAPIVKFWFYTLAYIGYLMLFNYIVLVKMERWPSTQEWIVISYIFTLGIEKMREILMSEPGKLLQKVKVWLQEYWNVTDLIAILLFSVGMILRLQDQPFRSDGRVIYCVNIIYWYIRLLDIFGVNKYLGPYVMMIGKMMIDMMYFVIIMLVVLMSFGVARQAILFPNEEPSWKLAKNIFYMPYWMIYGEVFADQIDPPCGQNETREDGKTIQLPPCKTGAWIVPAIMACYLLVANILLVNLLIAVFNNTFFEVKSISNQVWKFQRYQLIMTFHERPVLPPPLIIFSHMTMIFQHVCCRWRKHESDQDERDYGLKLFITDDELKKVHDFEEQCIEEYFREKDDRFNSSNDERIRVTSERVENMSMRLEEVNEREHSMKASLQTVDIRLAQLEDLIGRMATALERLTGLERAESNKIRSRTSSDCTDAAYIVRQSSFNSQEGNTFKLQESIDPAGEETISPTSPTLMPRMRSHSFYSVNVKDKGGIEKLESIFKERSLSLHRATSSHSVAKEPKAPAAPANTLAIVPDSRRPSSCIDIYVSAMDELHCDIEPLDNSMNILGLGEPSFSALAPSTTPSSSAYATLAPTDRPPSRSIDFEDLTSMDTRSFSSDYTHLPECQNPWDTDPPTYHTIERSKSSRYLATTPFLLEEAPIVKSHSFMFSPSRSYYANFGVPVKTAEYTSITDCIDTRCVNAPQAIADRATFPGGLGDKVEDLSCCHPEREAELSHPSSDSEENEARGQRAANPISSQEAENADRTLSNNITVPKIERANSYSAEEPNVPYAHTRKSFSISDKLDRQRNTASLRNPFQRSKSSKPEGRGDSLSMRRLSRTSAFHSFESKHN
row,IC50 [µM],Structure (SMILES)
1,< 1,"Cc1oc2ccc(OC[C@H]3C[C@@H](C)C3)cc2c1C(=O)NC(C)(CO)C(N)=O (single isomer, unassigned) [Cpd 058 - En1, Cis-3-hydroxy-2-methyl-2-({2-methyl-5-[(3-methylcyclobutyl)methoxy]-1-benzofuran-3-yl}formamido)propenamide]"
2,< 1,"NC(=O)[C@H](CO)NC(=O)c1c(C2CC2)oc2ccc(OCC3CC3)cc12 [Cpd 004, (2S)-2-{[2-cyclopropyl-5-(cyclopropylmethoxy)-1-benzofuran-3-yl]formamido}-3-hydroxypropanamide]"
3,1 to 20,"Cc1oc2ccc(OCC3(C(F)F)CC3)cc2c1C(=O)NC1(C(N)=O)CCOC1 (single isomer, unassigned) [Cpd 036 - En1, N-(3-carbamoyloxolan-3-yl)-5-{[1-(difluoromethyl)cyclopropyl]methoxy}-2-methyl-1-benzofuran-3-carboxamide]"
4,1 to 20,"Cc1oc2ccc(OCC3CC3(C)C)cc2c1C(=O)NC1CCNCC1(F)F (single isomer, unassigned) [Cpd 033-En4, N-(3,3-difluoropiperidin-4-yl)-5-[(2,2-dimethylcyclopropyl)methoxy]-2-methyl-1-benzofuran-3-carboxamide]"
5,< 1,"Cc1oc2ccc(OC[C@H]3C[C@H](C)C3)cc2c1C(=O)NC(C)(CO)C(N)=O (single isomer, unassigned) [Cpd 059 - En1, Trans-3-hydroxy-2-methyl-2-({2-methyl-5-[(3-methylcyclobutyl)methoxy]-1-benzofuran-3-yl}formamido)propenamide]"
6,< 1,"Cc1oc2ccc(OCC(F)F)cc2c1C(=O)NC1(C(N)=O)CCOC1 (single isomer, unassigned) [Cpd 044 - En2, N-(3-carbamoyloxolan-3-yl)-5-(2,2-difluoroethoxy)-2-methyl-1-benzofuran-3-carboxamide]"
7,< 1,"Cc1oc2ccc(OCC3CC3)cc2c1C(=O)NC1(C(N)=O)COC1 [Cpd 034, N-(3-carbamoyloxetan-3-yl)-5-(cyclopropylmethoxy)-2-methyl-1-benzofuran-3-carboxamide]"
8,1 to 20,"Cc1oc2ccc(OCC3CC3)cc2c1C(=O)NC1CCN(C)CC1 [Cpd 021, 5-(cyclopropylmethoxy)-2-methyl-N-(1-methylpiperidin-4-yl)-1-benzofuran-3-carboxamide]"
9,< 1,"Cc1oc2ccc(OCC3CC3)cc2c1C(=O)NC(C)(CO)CO [Cpd 023, 5-(cyclopropylmethoxy)-N-(1,3-dihydroxy-2-methylpropan-2-yl)-2-methyl-1-benzofuran-3-carboxamide]"
10,1 to 20,"Cc1oc2ccc(OCC3CC3)cc2c1C(=O)NC1CCCNC1=O (single isomer, unassigned) [Cpd 055 - En2, 5-(cyclopropylmethoxy)-2-methyl-N-(2-oxopiperidin-3-yl)-1-benzofuran-3-carboxamide]"
11,< 1,"Cc1oc2ccc(OCC3CC3)cc2c1C(=O)NC1(C(N)=O)CCOCC1 [Cpd 037, N-(4-carbamoyloxan-4-yl)-5-(cyclopropylmethoxy)-2-methyl-1-benzofuran-3-carboxamide]"
12,< 1,"Cc1oc2ccc(OCC3CCC3)cc2c1C(=O)N[C@@H](CO)C(N)=O [Cpd 006, (2S)-2-{[5-(cyclobutylmethoxy)-2-methyl-1-benzofuran-3-yl]formamido}-3-hydroxypropanamide]"
13,< 1,"Cc1oc2ccc(OCC3CCC3)cc2c1C(=O)NC(C)(C)C(N)=O [Cpd 015, 2-{[5-(cyclobutylmethoxy)-2-methyl-1-benzofuran-3-yl]formamido}-2-methylpropanamide]"
14,< 1,"Cc1oc2ccc(OCC3(C(F)F)CC3)cc2c1C(=O)NC(C)(CO)C(N)=O (single isomer, unassigned) [Cpd 014 - En2, 2-[(5-{[1-(difluoromethyl)cyclopropyl]methoxy}-2-methyl-1-benzofuran-3-yl)formamido]-3-hydroxy-2-methylpropanamide]"
15,1 to 20,"Cc1oc2ccc(OCC3CC3)cc2c1C(=O)NC1(CO)CC1 [Cpd 026, 5-(cyclopropylmethoxy)-N-[1-(hydroxymethyl)cyclopropyl]-2-methyl-1-benzofuran-3-carboxamide]"
16,< 1,"Cc1oc2ccc(OCC3CC3)cc2c1C(=O)NC(C)(C)C(N)=O [Cpd 016, 2-{[5-(cyclopropylmethoxy)-2-methyl-1-benzofuran-3-yl]formamido}-2-methylpropanamide]"

row,IC50 [µM],Structure (SMILES)
1,> 20,"Cc1oc2ccc(OCC3CCCCC3)cc2c1C(=O)NC1CCN(C)CC1 [Cpd 020, 5-(cyclohexylmethoxy)-2-methyl-N-(1-methylpiperidin-4-yl)-1-benzofuran-3-carboxamide]"
2,< 1,"Cc1oc2ccc(OCCC3CC3)cc2c1C(=O)N[C@H](C(N)=O)[C@@H](C)O [Cpd 012, (2S,3R)-2-{[5-(2-cyclopropylethoxy)-2-methyl-1-benzofuran-3-yl]formamido}-3-hydroxybutanamide]"
3,< 1,"Cc1oc2ccc(OCC3CC3)cc2c1C(=O)N[C@@H](CO)C(N)=O [Cpd 001, (2S)-2-{[5-(cyclopropylmethoxy)-2-methyl-1-benzofuran-3-yl]formamido}-3-hydroxypropanamide]"
4,1 to 20,"Cc1oc2ccc(OCC3CC3)cc2c1C(=O)NC1(CO)CCCNC1=O (single isomer, unassigned) [Cpd 027 - En2, 5-(cyclopropylmethoxy)-N-[3-(hydroxymethyl)-2-oxopiperidin-3-yl]-2-methyl-1-benzofuran-3-carboxamide]"
5,1 to 20,"Cc1oc2ccc(OCC3CC3)cc2c1C(=O)NC1CCNCC1(F)F (single isomer, unassigned) [Cpd 024-En1, 5-(cyclopropylmethoxy)-N-(3,3-difluoropiperidin-4-yl)-2-methyl-1-benzofuran-3-carboxamide]"
6,< 1,"Cc1oc2ccc(OCC3CC3(F)F)cc2c1C(=O)N[C@@H](CO)C(N)=O (single isomer, unassigned) [Cpd 002 - En2]"
7,< 1,"Cc1oc2ccc(OCC3CC3(C)C)cc2c1C(=O)NC1CCNCC1(F)F (single isomer, unassigned) [Cpd 033-En3, N-(3,3-difluoropiperidin-4-yl)-5-[(2,2-dimethylcyclopropyl)methoxy]-2-methyl-1-benzofuran-3-carboxamide]"
8,1 to 20,"Cc1oc2ccc(OCC(F)F)cc2c1C(=O)NC1(C(N)=O)CCOC1 (single isomer, unassigned) [Cpd 044 - En1, N-(3-carbamoyloxolan-3-yl)-5-(2,2-difluoroethoxy)-2-methyl-1-benzofuran-3-carboxamide]"
9,1 to 20,"Cc1oc2ccc(OCC3CC3(F)F)cc2c1C(=O)NC(CO)CC(F)(F)F (single isomer, unassigned) [Cpd 057 - En3, 5-[(2,2-difluorocyclopropyl)methoxy]-2-methyl-N-(4,4,4-trifluoro-1-hydroxybutan-2-yl)-1-benzofuran-3-carboxamide]"
10,< 1,"Cc1oc2ccc(OCC3CC3(C)C)cc2c1C(=O)NC(C)(CO)C(N)=O (single isomer, unassigned) [Cpd 049 - En2, 2-({5-[(2,2-dimethylcyclopropyl)methoxy]-2-methyl-1-benzofuran-3-yl}formamido)-3-hydroxy-2-methylpropanamide]"
11,< 1,"Cc1oc2ccc(OCC3CC3)cc2c1C(=O)NC1(CO)CCOCC1 [Cpd 030, 5-(cyclopropylmethoxy)-N-[4-(hydroxymethyl)oxan-4-yl]-2-methyl-1-benzofuran-3-carboxamide]"
12,1 to 20,"Cc1oc2ccc(OCC(C)(C)C)cc2c1C(=O)NC1CCNCC1(F)F (single isomer, unassigned) [Cpd 043-En2, N-(3,3-difluoropiperidin-4-yl)-5-(2,2-dimethylpropoxy)-2-methyl-1-benzofuran-3-carboxamide]"
13,< 1,"Cc1oc2ccc(OCC3(C(F)F)CC3)cc2c1C(=O)NC(C)(CO)C(N)=O (single isomer, unassigned) [Cpd 014 - En1, 2-[(5-{[1-(difluoromethyl)cyclopropyl]methoxy}-2-methyl-1-benzofuran-3-yl)formamido]-3-hydroxy-2-methylpropanamide]"
14,1 to 20,"Cc1oc2ccc(OCC3(C(F)(F)F)CC3)cc2c1C(=O)NC1(C)CCCNC1=O (single isomer, unassigned) [Cpd 061 - En2, 2-methyl-N-(3-methyl-2-oxopiperidin-3-yl)-5-{[1-(trifluoromethyl)cyclopropyl]methoxy}-1-benzofuran-3-carboxamide]"
15,< 1,"Cc1oc2ccc(OCC3(C(F)F)CC3)cc2c1C(=O)N[C@H](C(N)=O)[C@@H](C)O [Cpd 011, (2S,3R)-2-[(5-{[1-(difluoromethyl)cyclopropyl]methoxy}-2-methyl-1-benzofuran-3-yl)formamido]-3-hydroxybutanamide]"
